Each molecule was assayed on Acinetobacter baumannii (assay: Antibiofilm activity against Acinetobacter baumannii ATCC19606 assessed as inhibition of biofilm formation incubated for 18 to 24 hrs by crystal violet staining based assay). Settings: not given.
Assay type: functional, organism-based

Structure (SMILES) | IC50 [µM]
O=C(Cc1cccc(Br)c1)N[C@H]1CCOC1=O | 85.3

The molecules below were run on Staphylococcus epidermidis (assay: Antibiofilm activity against Staphylococcus epidermis ATCC 102555 assessed as inhibition rate of biofilm formation at 200 uM incubated for 18 to 24 hrs by crystal violet staining based assay relative to control). Settings: time 18-24 hrs.
Assay type: functional

Structure (SMILES) | inhibition at 200 µM [%]
O=C(Cc1cccc(Br)c1)N[C@H]1CCOC1=O | < 50

Each molecule was assayed on Acinetobacter baumannii (assay: Antibiofilm activity against Acinetobacter baumannii S1 assessed as inhibition of biofilm formation incubated for 18 to 24 hrs by crystal violet staining based assay). Settings: not given.
Assay type: functional, organism-based

Structure (SMILES) | IC50 [µM]
O=C(Cc1cccc(Br)c1)N[C@H]1CCOC1=O | 143

These molecules were tested on Escherichia coli (assay: Antibiofilm activity against Escherichia coli Dh5alpha assessed as inhibition rate of biofilm formation at 200 uM incubated for 18 to 24 hrs by crystal violet staining based assay relative to control). Settings: DH5-alpha, time 18-24 hrs.
Assay type: functional

Structure (SMILES) | inhibition at 200 µM [%]
O=C(Cc1cccc(Br)c1)N[C@H]1CCOC1=O | < 50

Each molecule was assayed on Acinetobacter baumannii (assay: Antibiofilm activity against Acinetobacter baumannii 1925052 assessed as inhibition of biofilm formation incubated for 18 to 24 hrs by crystal violet staining based assay). Settings: not given.
Assay type: functional, organism-based

Structure (SMILES) | IC50 [µM]
O=C(Cc1cccc(Br)c1)N[C@H]1CCOC1=O | 195

These molecules were tested on Acinetobacter baumannii (assay: Antibiofilm activity against Acinetobacter baumannii 1780608 assessed as inhibition of biofilm formation incubated for 18 to 24 hrs by crystal violet staining based assay). Settings: not given.
Assay type: functional, organism-based

Structure (SMILES) | IC50 [µM]
O=C(Cc1cccc(Br)c1)N[C@H]1CCOC1=O | 120

The molecules below were run on Pseudomonas aeruginosa (assay: Antibiofilm activity against Pseudomonas aeruginosa ATCC 27853 assessed as inhibition rate of biofilm formation at 200 uM incubated for 18 to 24 hrs by crystal violet staining based assay relative to control). Settings: time 18-24 hrs.
Assay type: functional

Structure (SMILES) | inhibition at 200 µM [%]
O=C(Cc1cccc(Br)c1)N[C@H]1CCOC1=O | < 50

The molecules below were run on Staphylococcus aureus (assay: Antibiofilm activity against Staphylococcus aureus ATCC […] assessed as inhibition rate of biofilm formation at 200 uM incubated for 18 to 24 hrs by crystal violet staining based assay relative to control). Settings: time 18-24 hrs.
Assay type: functional

Structure (SMILES) | inhibition at 200 µM [%]
O=C(Cc1cccc(Br)c1)N[C@H]1CCOC1=O | < 50

Each molecule was assayed on Acinetobacter baumannii (assay: Antibiofilm activity against Acinetobacter baumannii 1778027 assessed as inhibition rate of biofilm formation at 200 uM incubated for 18 to 24 hrs by crystal violet staining based assay relative to control). Settings: time 18-24 hrs.
Assay type: functional

Structure (SMILES) | inhibition at 200 µM [%]
O=C(Cc1cccc(Br)c1)N[C@H]1CCOC1=O | < 50

These molecules were tested on Acinetobacter baumannii (assay: Antibacterial activity against Acinetobacter baumannii S1 assessed as planktonic growth inhibition incubated for 18 to 24 hrs by CLSI protocol based assay). Settings: time 18-24 hrs.
Assay type: functional

Structure (SMILES) | MIC [µg/mL]
CCCCCCCCCCCCCC(=O)Nc1nc(Cl)cc(N2CCOCC2)n1 | > 256
CCCCCCCCCCCCCC(=O)Nc1nc(OC)cc(OC)n1 | > 256
CCCC(=O)Nc1ncccn1 | > 256
CCCCCCCCCCCCCCCC(=O)Nc1ncccn1 | > 256
CCCCCCCCCCCCCC(=O)Nc1nc(Cl)cc(N(C)C)n1 | > 256

Each molecule was assayed on Acinetobacter baumannii (assay: Antibiofilm activity against Acinetobacter baumannii S1 assessed as inhibition rate of biofilm formation at 100 uM incubated for 18 to 24 hrs by crystal violet staining based assay (reference value: 28.8 +/- 8.21%)). Settings: time 18-24 hrs.
Assay type: functional
Parameters: scale not given: the % may be the effect or the level left

Structure (SMILES) | Activity [%]
CCCCCCCCCCCCCC(=O)Nc1nc(Cl)cc(N2CCOCC2)n1 | 28.5
CCCCCCCCCCCCCC(=O)Nc1nc(OC)cc(OC)n1 | 59.3
CCCC(=O)Nc1ncccn1 | 28.3
CCCCCCCCCCCCCCCC(=O)Nc1ncccn1 | 22.5
CCCCCCCCCCCCCC(=O)Nc1nc(Cl)cc(N(C)C)n1 | 40.5

The molecules below were run on Acinetobacter baumannii (assay: Antibiofilm activity against Acinetobacter baumannii 1913061 assessed as inhibition of biofilm formation incubated for 18 to 24 hrs by crystal violet staining based assay). Settings: not given.
Assay type: functional, organism-based

Structure (SMILES) | IC50 [µM]
O=C(Cc1cccc(Br)c1)N[C@H]1CCOC1=O | 22.8

Reference: ChEMBL document CHEMBL5150056, “Synthesis and antibiofilm evaluation of N-acyl-2-aminopyrimidine derivatives against Acinetobacter baumannii” (Bioorg Med Chem, 2022)
